Measurements: US12084522B2, “Peptides, combination of peptides, and cell based medicaments for use in immunotherapy against urinary bladder cancer and other cancers” (Immatics Biotechnologies GmbH, priority 2016, dated 2024)

How the values were obtained:
[1] = target: HLA-A*02:01 (Homo sapiens, UniProt P04439, D140Y/D185E/D98H/E176V/E277Q/G131W/G231S/I119V/I121R/I166T/I218V/L300P/L318F/N151K/N90K/P208A/P217A/Q86G/Q94H/R138H/R169H/T345S); experiment: MHC binding assay (UV-ligand exchange, β2m ELISA, peptide exchange yield); conditions: binding to HLA-A*02:01 ranged by peptide exchange yield (UV-ligand exchange, β2m ELISA)
Source text: Candidate peptides for T cell based therapies according to the present invention were further tested for their MHC binding capacity (affinity). The individual peptide-MHC complexes were produced by UV-ligand exchange, where a UV-sensitive peptide is cleaved upon UV-irradiation, and exchanged with the peptide of interest as analyzed. Only peptide candidates that can effectively bind and stabilize the peptide-receptive MHC molecules prevent dissociation of the MHC complexes. To determine the yield of the exchange reaction, an ELISA was performed based on the detection of the light chain (β2 m) of stabilized MHC complexes. The assay was performed as generally described in Rodenko et al. (Rodenko et al., 2006).
96 well MAXISorp plates (NUNC) were coated over night with 2 μg/ml streptavidin in PBS at room temperature, washed 4× and blocked forth at 37° C. in 2% BSA containing blocking buffer. Refolded HLA-A*02:01/MLA-001 monomers served as standards, covering the range of 15-500 ng/ml. Peptide-MHC monomers of the UV-exchange reaction were diluted 100 fold in blocking buffer. Samples were incubated for 1 h at 37° C., washed four times, incubated with 2 ug/ml HRP conjugated anti-β2 m for 1 h at 37° C., washed again and detected with TMB solution that is stopped with […]. Absorption was measured at 450 nm. Candidate peptides that show a high exchange yield (preferably higher than 50%, most preferred higher than 75%) are generally preferred for a generation and production of antibodies or fragments thereof, and/or T cell receptors or fragments thereof, as they show sufficient avidity to the MHC molecules and prevent dissociation of the MHC complexes.

[2] = test system: CD8+ T cells from healthy HLA-A*02 donors; experiment: In vitro immunogenicity: priming of CD8+ T cells with aAPCs loaded with peptide/MHC complexes and anti-CD28, pMHC multimer readout; format: cell-based, human; conditions: for Wells positive [%]: HLA-A*02 restricted peptides, positive wells among evaluable, Table 10B; for Wells (in vitro immunogenicity, positive wells): HLA class I peptides, Table 10A
Source text: In order to obtain information regarding the immunogenicity of the TUMAPs of the present invention, the inventors performed investigations using an in vitro T-cell priming assay based on repeated stimulations of CD8+ T cells with artificial antigen presenting cells (aAPCs) loaded with peptide/MHC complexes and anti-CD28 antibody.
In order to perform in vitro stimulations by artificial antigen presenting cells loaded with peptide-MHC complex (pMHC) and anti-CD28 antibody, the inventors first isolated CD8+ T cells from fresh HLA-A*02 leukapheresis products via positive selection using CD8 microbeads (Miltenyi Biotec, Bergisch-Gladbach, Germany) of healthy donors obtained from the University clinics Mannheim, Germany, after informed consent.
PBMCs and isolated CD8+ lymphocytes were incubated in T-cell medium (TCM) until use consisting of RPMI-Glutamax (Invitrogen, Karlsruhe, Germany) supplemented with 10% heat inactivated human AB serum (PAN-Biotech, Aidenbach, Germany), 100 U/ml Penicillin/100 μg/ml Streptomycin (Cambrex, Cologne, Germany), 1 mM sodium pyruvate (CC Pro, Oberdorla, Germany), 20 μg/ml Gentamycin (Cambrex). 2.5 ng/ml IL-7 (PromoCell, Heidelberg, Germany) and 10 U/ml IL-2 (Novartis Pharma, Nürnberg, Germany) were also added to the TCM at this step.
Generation of pMHC/anti-CD28 coated beads, T-cell stimulations and readout was performed in a highly defined in vitro system using four different pMHC molecules per stimulation condition and 8 different pMHC molecules per readout condition.
The purified co-stimulatory mouse IgG2a anti human CD28 Ab 9.3 (Jung et al., 1987) was chemically biotinylated using Sulfo-N-hydroxysuccinimidobiotin as recommended by the manufacturer (Perbio, Bonn, Germany). Beads used were 5.6 μm diameter streptavidin coated polystyrene particles (Bangs Laboratories, Illinois, USA).
800.000 beads/200 μl were coated in 96-well plates in the presence of 4×12.5 ng different biotin-pMHC, washed and 600 ng biotin anti-CD28 were added subsequently in a volume of 200 μl. Stimulations were initiated in 96-well plates by co-incubating 1×10^6 CD8+ T cells with 2×10^5 washed coated beads in 200 μl TCM supplemented with 5 ng/ml IL-12 (PromoCell) for 3 days at 37° C. Half of the medium was then exchanged by fresh TCM supplemented with 80 U/ml IL-2 and incubating was continued for 4 days at 37° C. This stimulation cycle was performed for a total of three times. For the pMHC multimer readout using 8 different pMHC molecules per condition, a two-dimensional combinatorial coding approach was used as previously described (Andersen et al., 2012) with minor modifications encompassing coupling to 5 different fluorochromes. Finally, multimeric analyses were performed by staining the cells with Live/dead near IR dye (Invitrogen, Karlsruhe, Germany), CD8-FITC antibody clone SK1 (BD, Heidelberg, Germany) and fluorescent pMHC multimers. For analysis, a BD LSRII SORP cytometer equipped with appropriate lasers and filters was used. Peptide specific cells were calculated as percentage of total CD8+ cells. Evaluation of multimeric analysis was done using the FlowJo software (Tree Star, Oregon, USA). In vitro priming of specific multimer+CD8+ lymphocytes was detected by comparing to negative control stimulations.

Row | Peptide exchange [1] | Substance | Wells positive [%] [2] | Wells (in vitro immunogenicity, positive wells) [2]
1 | ++++ (>75% = ++++) | 23 (YTLSKTEFL; listed as Homo sapiens) [compound 23] | + (<20% = +) | 
2 | ++++ (>75% = ++++) | 59 (WLSTSIPEA; listed as Homo sapiens) [compound 59] | + (<20% = +) | 
3 | ++++ (>75% = ++++) | 60 (SLSDVRVIV; listed as Homo sapiens) [compound 60] | + (<20% = +) | 
4 | ++++ (>75% = ++++) | 41 (FLDDGNQMLL; listed as Homo sapiens) [compound 41] | + (<20% = +) | 
5 | +++ (>50 = +++) | 15 (YLAPENGYLMEA; listed as Homo sapiens) [compound 15] | + (<20% = +) | 
6 | +++ (>50 = +++) | 29 (ALSSPPPTV; listed as Homo sapiens) [compound 29] | + (<20% = +) | 
7 | +++ (>50 = +++) | 16 (ILGPQGNTI; listed as Homo sapiens) [compound 16] | + (<20% = +) | 
8 | +++ (>50 = +++) | 6 (SIVDFLITA; listed as Homo sapiens) [compound 6] | + (<20% = +) | 
9 | +++ (>50 = +++) | 53 (ILVQVIPVV; listed as Homo sapiens) [compound 53] | ++ (20%-49% = ++) | 
10 | +++ (>50 = +++) | 50 (VLANRVAVV; listed as Homo sapiens) [compound 50] | ++++ (>=70% = ++++) | 
11 | +++ (>50 = +++) | 75 (RVISSVISV; listed as Homo sapiens) [compound 75] | ++ (20%-49% = ++) | 
12 |  | 178 (ALNEEAGRLLL; listed as Homo sapiens) [compound 178] |  | + (<20% = +)
13 |  | 172 (LLYGHTVTV; listed as Homo sapiens) [compound 172] |  | ++ (20%-49% = ++)
14 | +++ (>50 = +++) | 27 (STTNGGILTV; listed as Homo sapiens) [compound 27] | + (<20% = +) | 
15 |  | 204 (GVYDGEEHSV; listed as Homo sapiens) [compound 204] |  | + (<20% = +)
16 | +++ (>50 = +++) | 111 (LLDVTPKAV; listed as Homo sapiens) [compound 111] | +++ (50%-69% = +++) | 
17 | ++++ (>75% = ++++) | 57 (GLAHFVNEI; listed as Homo sapiens) [compound 57] | + (<20% = +) | 
18 |  | 159 (SLIEDLILL; listed as Homo sapiens) [compound 159] |  | + (<20% = +)
19 |  | 164 (ALADLTGTVV; listed as Homo sapiens) [compound 164] |  | + (<20% = +)
20 |  | 162 (TLLAAEFLKQV; listed as Homo sapiens) [compound 162] |  | + (<20% = +)

Row | Peptide exchange [1] | Substance | Wells positive [%] [2] | Wells (in vitro immunogenicity, positive wells) [2]
21 | ++++ (>75% = ++++) | 24 (SLLGGITVV; listed as Homo sapiens) [compound 24] | ++ (20%-49% = ++) | 
22 | +++ (>50 = +++) | 114 (IITKDLFQV; listed as Homo sapiens) [compound 114] | + (<20% = +) | 
23 | +++ (>50 = +++) | 14 (GLAGPVRGV; listed as Homo sapiens) [compound 14] | + (<20% = +) | 
24 | ++++ (>75% = ++++) | 10 (GLWHGMFANV; listed as Homo sapiens) [compound 10] | ++ (20%-49% = ++) | 
25 |  | 203 (FLIPYAIML; listed as Homo sapiens) [compound 203] |  | + (<20% = +)
26 | +++ (>50 = +++) | 30 (ILDISRSEV; listed as Homo sapiens) [compound 30] | ++++ (>=70% = ++++) | 
27 |  | 193 (ALVQDLAKA; listed as Homo sapiens) [compound 193] |  | ++ (20%-49% = ++)
28 | ++++ (>75% = ++++) | 4 (SLDVVNLLV; listed as Homo sapiens) [compound 4] | + (<20% = +) | 
29 |  | 189 (ALLRTVVSV; listed as Homo sapiens) [compound 189] |  | + (<20% = +)
30 | ++++ (>75% = ++++) | 9 (SLVDARFQL; listed as Homo sapiens) [compound 9] | + (<20% = +) | 
31 | ++++ (>75% = ++++) | 146 (YLARIQGFQV; listed as Homo sapiens) [compound 146] | ++ (20%-49% = ++) | 
32 | ++++ (>75% = ++++) | 126 (SLLRVGWSV; listed as Homo sapiens) [compound 126] | ++ (20%-49% = ++) | 
33 | ++++ (>75% = ++++) | 5 (IQDPVIFYV; listed as Homo sapiens) [compound 5] | +++ (50%-69% = +++) | 
34 |  | 177 (NLLQVLEKV; listed as Homo sapiens) [compound 177] |  | + (<20% = +)
35 |  | 200 (YLNVQVKEL; listed as Homo sapiens) [compound 200] |  | + (<20% = +)
36 | ++++ (>75% = ++++) | 148 (TLGVIPESV; listed as Homo sapiens) [compound 148] | + (<20% = +) | 
37 |  | 198 (NLIEKSIYL; listed as Homo sapiens) [compound 198] |  | + (<20% = +)
38 |  | 168 (LTAPPEALLMV; listed as Homo sapiens) [compound 168] |  | + (<20% = +)
39 |  | 192 (ALNPADITV; listed as Homo sapiens) [compound 192] |  | ++ (20%-49% = ++)
40 | +++ (>50 = +++) | 17 (RLSQLEGVNV; listed as Homo sapiens) [compound 17] | + (<20% = +) | 
